Columns and labels:
[1] = system: MCF-7 breast carcinoma cell line; experiment: Growth inhibition of tumor cell lines in vitro (MTT / cell counting); type: cell-based, human; settings: for IC50: MCF-7, 3 days
Method: (§1) The experiments were carried out on a murine lymphocytic leukemia cell line (L1210) and five human tumor cell lines: CEM, HeLa, NCI-H460, SW 620 and MCF-7. The cells were cultured as monolayers and maintained in Dulbecco′s modified Eagle medium (DMEM) supplemented with 10% fetal bovine serum (FBS), 2 mM L-glutamine, 100 U/mL penicillin and 100 μg/mL streptomycin in a humidified atmosphere with 5% CO2 at 37 °C.
(§2) The growth inhibition activity of the compounds was assessed as described previously. The cell lines were inoculated onto a series of standard 96-well microtiter plates on day 0, at 1.5 × 10^4 cells/mL (SW 620, H460) to 2.5 × 10^4 cells/mL (MCF-7, CEM and L1210), depending on the growth of the tumor cell line. Test agents were then added in ten-fold dilutions (10^−8 to 10^−4 M) and the cell cultures were then incubated for 3–4 days with 5% CO2 at 37 °C. Working dilutions of the compounds were freshly prepared on the day of testing.
(§3) After 3 (MCF-7, SW 620, NCI-H460) or 4 days (CEM, L1210), the cell growth rate was evaluated first light microscopically, then by viable cell counting and/or by performing the MTT assay, which detects dehydrogenase activity in live, not dead, cells. The absorbance (A) was measured on a microplate reader at 570 nm. The absorbance is directly proportional to the number of living, metabolically active cells. […] If however, all of the tested concentrations produce PGs exceeding the respective reference level of effect (e.g., PG value of 50), then the highest tested concentration is assigned as the default value, which is preceded by a “>” sign. Minimum two individual experiments were carried out and each test point was performed in quadruplicate.

[2] = system: NCI-H460 lung carcinoma cell line; experiment: as above; type: cell-based, human; settings: NCI-H460, 3 days
Method: as §1, §2, §3

[3] = target: T1, soybean lipoxygenase (LOX) (Glycine max, UniProt P08170); experiment: LOX inhibition study in vitro; type: biochemical; settings: for IC50: values in parentheses in Table 3
T1 construct: purchased Sigma-Aldrich
T1 sequence (P08170 1-839): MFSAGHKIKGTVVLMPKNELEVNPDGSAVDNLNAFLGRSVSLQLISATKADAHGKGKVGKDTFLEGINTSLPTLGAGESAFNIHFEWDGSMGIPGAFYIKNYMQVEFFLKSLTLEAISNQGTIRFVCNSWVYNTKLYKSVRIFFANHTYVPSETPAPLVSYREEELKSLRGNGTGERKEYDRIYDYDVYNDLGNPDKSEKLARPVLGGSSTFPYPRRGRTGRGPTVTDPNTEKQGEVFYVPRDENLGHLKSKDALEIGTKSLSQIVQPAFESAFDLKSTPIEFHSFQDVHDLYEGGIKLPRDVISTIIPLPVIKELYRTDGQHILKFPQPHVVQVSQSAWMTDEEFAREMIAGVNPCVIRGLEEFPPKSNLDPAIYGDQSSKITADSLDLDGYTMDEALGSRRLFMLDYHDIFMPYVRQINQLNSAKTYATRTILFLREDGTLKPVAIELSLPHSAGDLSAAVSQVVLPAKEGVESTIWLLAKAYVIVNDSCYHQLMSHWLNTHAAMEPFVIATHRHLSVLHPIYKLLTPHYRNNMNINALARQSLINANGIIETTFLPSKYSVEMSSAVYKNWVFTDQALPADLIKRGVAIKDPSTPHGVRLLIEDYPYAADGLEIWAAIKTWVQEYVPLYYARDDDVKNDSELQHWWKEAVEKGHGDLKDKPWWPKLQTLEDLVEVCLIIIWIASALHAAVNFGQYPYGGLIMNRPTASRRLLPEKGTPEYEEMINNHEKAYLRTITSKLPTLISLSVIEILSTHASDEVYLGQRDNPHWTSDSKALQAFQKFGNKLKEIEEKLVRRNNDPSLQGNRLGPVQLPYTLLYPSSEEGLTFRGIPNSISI
Method: LOX inhibitory assay in vitro was accomplished as described previously. The test compounds (stock solutions 10 mM in DMSO) were incubated at room temperature with sodium linoleate (c = 0.1 mM) and 0.2 mL of LOX enzyme solution (1/9 × 10^−4 m/V in saline). The conversion of sodium linoleate to 13-hydroperoxylinoleic acid was measured at 234 nm and compared with the reference inhibitor. Several concentrations were used for the IC50 determination.

[4] = system: CEM acute lymphoblastic leukemia cell line; experiment: Growth inhibition of tumor cell lines in vitro (MTT / cell counting); type: cell-based; settings: Homo sapiens, 96 h, 4 days
Method: as §1, §2, §3

[5] = system: HeLa cervical carcinoma cell line; experiment: as above; type: cell-based; settings: Homo sapiens
Method: as §1, §2, §3

[6] = system: L1210 murine lymphocytic leukemia cell line; experiment: as above; type: cell-based; settings: Mus musculus, 96 h; L1210, 4 days
Method: as §1, §2, §3

[7] = system: SW 620 colon carcinoma cell line; experiment: as above; type: cell-based; settings: Homo sapiens, 72 h; SW 620, 3 days
Method: as §1, §2, §3

[8] = Inhibition of linoleic acid peroxidation (AAPH-induced); settings: 5 × 10^−5 M
Method: For initiating the lipid peroxidation free radical AAPH was used. Final solution in the UV cuvette consisted of 10 μL linoleate sodium solution (c = 16 mM), 0.93 mL phosphate buffer (c = 0.05 M), pH 7.4, thermostated at 37 °C. 50 μL AAPH solution (c = 40 mM) and 10 μL of the tested compounds were added. The experiment was performed at 37 °C under air. The oxidation of linoleic acid sodium salt was monitored at 234 nm. The assays were repeated at least in triplicate and the standard deviation of absorbance was less than 10% of the mean. Trolox was used under the same experimental conditions as a reference compound.

[9] = Interaction with the stable radical DPPH (reducing ability)
Method: To a solution of DPPH in absolute ethanol the appropriate volume of the compounds (50 or 100 µM final concentrations) dissolved in DMSO was added. The absorbance was recorded at 517 nm after 20 and 60 min at room temperature. The experiments were repeated at least in triplicate and the standard deviation of absorbance was less than 10% of the mean. NDGA was used under the same experimental conditions as a reference compound.

human coronavirus (229E) = experiment: microbe, parasite or virus in culture; type: cell-based; settings: read-out: EC50 (concentration required to reduce virus-induced cytopathogenicity by 50%), HEL cell cultures
colon carcinoma HCT 116 = experiment: Growth inhibition of tumor cell lines in vitro (reference drugs); type: cell-based; settings: colon carcinoma HCT 116 (footnote b, printed in SW 620 column)

| inhibition at 100 µM ([3]; 1 × 10^−4 M) [%] | SMILES | IC50 ([1]; Homo sapiens, MCF7, 72 h) [µM] | IC50 ([2]; Homo sapiens, 72 h) [µM] | IC50 [4] [µM] | IC50 [5] [µM] | IC50 [6] [µM] | IC50 [7] [µM] | LP Inhibition (%) [8] [%] | DPPH-reducing ability RA (%) ([9]; 1 × 10^−4 M, 20 min) | DPPH-reducing ability RA (%) ([9]; 1 × 10^−4 M, 60 min) | DPPH-reducing ability RA (%) ([9]; 5 × 10^−5 M, 20 min) | DPPH-reducing ability RA (%) ([9]; 5 × 10^−5 M, 60 min) | IC50 [3] [µM] | EC50 (human coronavirus (229E)) [µM] | fold higher activity than PQ ([1]; MCF-7) [fold] | fold higher activity than the anticancer reference drugs ([1]; MCF-7) | IC50 [1] [µM] | IC50 [2] [µM] | IC50 (colon carcinoma HCT 116) [µM] |
| --- | --- | --- | --- | --- | --- | --- | --- | --- | --- | --- | --- | --- | --- | --- | --- | --- | --- | --- | --- |
| 36 | COc1cc(NC(C)CCCNC(=O)NNC(=O)/C=C/c2ccccc2)c2ncccc2c1 (stereo not shown) [7a, (E)-1-Cinnamoyl-4-(4-(6-methoxyquinolin-8-ylamino)pentyl)semicarbazide] | 2.5 ± 1.9 | > 100 | 3 ± 0.5 | 12 ± 2 | 7 ± 3.1 | > 100 | 83 | 39 | 100 | 49 | 100 |  |  |  |  |  |  |  |
|  | COc1cc(NC(C)CCCNC(=O)NNC(=O)/C(C)=C/c2ccccc2)c2ncccc2c1 (stereo not shown) [7b, (E)-4-(4-(6-Methoxyquinolin-8-ylamino)pentyl)-1-(2-methyl-3-phenylacryloyl)semicarbazide] | 16 ± 9 | 50 ± 4 | 25 ± 14 | 47 ± 6 | 53 ± 5 | 9.5 ± 0.9 | 62 | 84 | 99 | 42 | 100 | 100 | 15 |  |  |  |  |  |
|  | COc1cc(NC(C)CCCNC(=O)NNC(=O)/C=C/c2ccc(OC)c(OC)c2)c2ncccc2c1 (stereo not shown) [7d, (E)-1-(3-(3,4-Dimethoxyphenyl)acryloyl)-4-(4-(6-methoxyquinolin-8-ylamino)pentyl)semicarbazide] | 1.9 ± 1.8 | 32 ± 21 | 93 ± 46 | 92 ± 30 | 40 ± 14 | 25 ± 9 | 88 | 100 | 100 | 55 | 100 | 10 |  |  |  |  |  |  |
|  | COc1cc(NC(C)CCCNC(=O)NNC(=O)/C=C/c2cc(OC)c(OC)c(OC)c2)c2ncccc2c1 (stereo not shown) [7e, (E)-4-(4-(6-Methoxyquinolin-8-ylamino)pentyl)-1-(3-(3,4,5-trimethoxyphenyl)acryloyl)semicarbazide] | 1.4 ± 0.1 | 63 ± 2 | 54 ± 12 | 70 ± 2 | 57 ± 5 | 48 ± 17 | 86 | 46 | 100 | 60 | 100 | 43 |  |  |  |  |  |  |
|  | COc1cc(NC(C)CCCNC(=O)NNC(=O)/C=C/c2ccc3c(c2)OCO3)c2ncccc2c1 (stereo not shown) [7f, (E)-1-(3-(Benzo[d][1,3]dioxo-5-yl)acryloyl)-4-(4-(6-methoxyquinolin-8-ylamino)pentyl)semicarbazide] | 0.6 ± 0.3 | 27 ± 3 | 7.4 ± 2.1 | 31 | 4.8 ± 0.2 | 17 ± 5 | 88 | 74 | 100 | 47 | 100 | 55 | 12.5 |  |  |  |  |  |
|  | COc1cc(NC(C)CCCNC(=O)NNC(=O)/C=C/c2ccccc2F)c2ncccc2c1 (stereo not shown) [7h, (E)-1-(3-(2-Fluorophenyl)acryloyl)-4-(4-(6-methoxyquinolin-8-ylamino)pentyl)semicarbazide] | 5.9 ± 2 | 12 ± 0.2 | 15 ± 2 | 46 ± 2 | 40 ± 4 | 12 ± 4 | 67 | 52 | 100 | 61 | 100 | 41 |  |  |  |  |  |  |
|  | COc1cc(NC(C)CCCNC(=O)NNC(=O)/C=C/c2cccc(C(F)(F)F)c2)c2ncccc2c1 (stereo not shown) [7i, (E)-4-(4-(6-Methoxyquinolin-8-ylamino)pentyl)-1-(3-(3-(trifluoromethyl)phenyl)acryloyl)semicarbazide] | 2.3 ± 0.2 | 18 ± 3 | 10 ± 1 | 10 ± 1 | 9.4 ± 4.8 | 16 ± 5 | 84 | 96 | 73 | 71 | 100 | 42.5 | 7.9 |  |  |  |  |  |
|  | COc1cc(NC(C)CCCNC(=O)NNC(=O)/C=C/c2ccc(C(F)(F)F)cc2)c2ncccc2c1 (stereo not shown) [7j, (E)-4-(4-(6-Methoxyquinolin-8-ylamino)pentyl)-1-(3-(4-(trifluoromethyl)phenyl)acryloyl)semicarbazide] | 0.03 ± 0.02 | 34 ± 2 | 9.4 ± 5.6 | 28 ± 12 | 27 | 40 ± 5 | 50 | 100 | 95 | 42 | 79 | 35 | 9.5 | 900 | 100-to 500 fold |  |  |  |
|  | COc1cc(NC(C)CCCNC(=O)NNC(=O)/C=C/c2cc(C(F)(F)F)cc(C(F)(F)F)c2)c2ncccc2c1 (stereo not shown) [7k, (E)-1-(3-(3,5-Bis(trifluoromethyl)phenyl)acryloyl)-4-(4-(6-methoxyquinolin-8-ylamino)pentyl)semicarbazide] | 3.2 ± 0.8 | 48 ± 2 | 17 ± 5 | 30 ± 23 | 30 ± 17 | 32 ± 4 | 55 | 98 | 97 | 72 | 100 | 67.5 | 8.4 |  |  |  |  |  |
|  | N.N.[Cl][Pt][Cl] [CIS, cisplatin, reference compound] |  |  |  |  |  |  |  |  |  |  |  |  |  |  |  | 10 ± 1 | 1 ± 0.1 | 7 ± 2 |
